Reference: US12344603B2 (Genentech, Inc., priority 2020, dated 2025)
Where a name gives a salt, the structure may show the parent alone.

These compounds were tested against IRE1α (Homo sapiens (Human), UniProt O75460, D688N) (assay: IRE1α TR-FRET competition binding assay (IRE1α HTRF)). Settings: TR-FRET competition binding to kinase domain of IRE1α.
In short: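 Competition of compounds against an Alexa fluor 647 ATP-site probe (2 nM final) for the His-tagged kinase domain (0.25 nM final), detected via 2 nM Eu anti-His antibody by TR-FRET, 665 and 615 nm emission. Protein–antibody premix 1 h, 4° C; reaction 1 h, room temperature, pH 7.5 HEPES buffer.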

Chain of IRE1α (O75460 547-977 D688N): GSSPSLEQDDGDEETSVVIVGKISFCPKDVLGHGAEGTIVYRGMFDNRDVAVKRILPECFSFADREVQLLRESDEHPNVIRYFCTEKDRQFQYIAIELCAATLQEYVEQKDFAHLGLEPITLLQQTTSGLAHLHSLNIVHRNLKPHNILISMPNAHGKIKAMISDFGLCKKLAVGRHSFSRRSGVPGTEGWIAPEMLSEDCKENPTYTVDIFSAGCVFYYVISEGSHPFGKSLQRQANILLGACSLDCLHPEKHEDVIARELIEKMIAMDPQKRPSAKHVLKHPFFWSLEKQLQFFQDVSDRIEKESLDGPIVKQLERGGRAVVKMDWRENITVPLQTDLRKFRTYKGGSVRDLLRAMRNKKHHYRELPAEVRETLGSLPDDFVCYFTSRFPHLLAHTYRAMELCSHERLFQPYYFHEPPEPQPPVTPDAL

| IC50 [nM] | Compound |
| --- | --- |
| 0.3 | CC(C)n1c(=O)c(-c2ccc(NS(=O)(=O)CCC(F)(F)F)nc2)cc2cnc(N[C@H]3CC[C@H](N(C)CCF)CC3)nc21 [Compound 143, 3,3,3-Trifluoro-N-(5-(2-(((1r,4r)-4-((2-fluoroethyl)(methyl)amino)cyclohexyl)amino)-8-isopropyl-7-oxo-7,8-dihydropyrido[2,3-d]pyrimidin-6-yl)pyridin-2-yl)propane-1-sulfonamide] |
| 0.18 | CC(C)n1c(=O)c(-c2ccc(NS(=O)(=O)c3ccccc3)nc2)cc2cnc(N[C@H]3CC[C@H](N(C)CCF)CC3)nc21 [Compound 144, N-(5-(2-(((1r,4r)-4-((2-Fluoroethyl)(methyl)amino)cyclohexyl)amino)-8-isopropyl-7-oxo-7,8-dihydropyrido[2,3-d]pyrimidin-6-yl)pyridin-2-yl)benzenesulfonamide] |
| 0.27 | Cc1nc(NS(=O)(=O)c2ccccc2Cl)ccc1-c1cc2cnc(N[C@H]3CC[C@H](N(C)CCF)CC3)nc2n(C(C)C)c1=O [Compound 145, 2-Chloro-N-(5-(2-(((1r,4r)-4-((2-fluoroethyl)(methyl)amino)cyclohexyl)amino)-8-isopropyl-7-oxo-7,8-dihydropyrido[2,3-d]pyrimidin-6-yl)-6-methylpyridin-2-yl)benzenesulfonamide] |
| 0.16 | CC(C)n1c(=O)c(-c2ccc(NS(=O)(=O)c3ccccc3Cl)nc2)cc2cnc(N[C@H]3CC[C@H](N(C)CCF)CC3)nc21 [Compound 146, 2-Chloro-N-(5-(2-(((1r,4r)-4-((2-fluoroethyl)(methyl)amino)cyclohexyl)amino)-8-isopropyl-7-oxo-7,8-dihydropyrido[2,3-d]pyrimidin-6-yl)pyridin-2-yl)benzenesulfonamide hydrochloride] |
| 0.27 | CC(C)n1c(=O)c(-c2ccc(NS(=O)(=O)c3ccccc3Cl)nc2)cc2cnc(N[C@@H]3CNC[C@@H](F)C3)nc21 [Compound 147, 2-Chloro-N-(5-(2-(((3S,5S)-5-fluoropiperidin-3-yl)amino)-8-isopropyl-7-oxo-7,8-dihydropyrido[2,3-d]pyrimidin-6-yl)pyridin-2-yl)benzenesulfonamide] |
| 0.23 | CC(C)n1c(=O)c(-c2ccc(NS(=O)(=O)c3ccccc3C#N)nc2)cc2cnc(N[C@H]3CC[C@H](N(C)CCF)CC3)nc21 [Compound 148, 2-Cyano-N-(5-(2-(((1r,4r)-4-((2-fluoroethyl)(methyl)amino)cyclohexyl)amino)-8-isopropyl-7-oxo-7,8-dihydropyrido[2,3-d]pyrimidin-6-yl)pyridin-2-yl)benzenesulfonamide] |
| 0.26 | CC(C)n1c(=O)c(-c2ccc(NS(=O)(=O)c3ccccc3OC(F)(F)F)nc2)cc2cnc(N[C@H]3CC[C@H](N(C)C)CC3)nc21 [Compound 150, N-(5-(2-(((1r,4r)-4-(Dimethylamino)cyclohexyl)amino)-8-isopropyl-7-oxo-7,8-dihydropyrido[2,3-d]pyrimidin-6-yl)pyridin-2-yl)-2-(trifluoromethoxy)benzenesulfonamide] |
| 1.3 | CC(C)n1c(=O)c(-c2ccc(NS(=O)(=O)N3CCCCC3)c(F)c2)nc2cnc(N[C@@H]3CNC[C@@H](F)C3)nc21 [Compound 162, N-(2-Fluoro-4-(2-(((3S,5S)-5-fluoropiperidin-3-yl)amino)-8-isopropyl-7-oxo-7,8-dihydropteridin-6-yl)phenyl)piperidine-1-sulfonamide] |

The remaining lines, values behind:

| Compound | IC50 [nM] |
| --- | --- |
| CC(C)n1c(=O)c(-c2cc(F)c(NS(=O)(=O)Cc3ccc(F)cc3)c(F)c2F)cc2cnc(N[C@H]3CC[C@H](N(C)CCF)CC3)nc21 [Compound 141, 1-(4-Fluorophenyl)-N-(2,3,6-trifluoro-4-(2-(((1r,4r)-4-((2-fluoroethyl)(methyl)amino)cyclohexyl)amino)-8-isopropyl-7-oxo-7,8-dihydropyrido[2,3-d]pyrimidin-6-yl)phenyl)methanesulfonamide] | 0.18 |
| Cc1nc(NS(=O)(=O)c2cccc(C#N)c2)ccc1-c1cc2cnc(N[C@H]3CC[C@H](N(C)C)CC3)nc2n(C(C)C)c1=O [Compound 142, 3-Cyano-N-(5-(2-(((1r,4r)-4-(dimethylamino)cyclohexyl)amino)-8-isopropyl-7-oxo-7,8-dihydropyrido[2,3-d]pyrimidin-6-yl)-6-methylpyridin-2-yl)benzenesulfonamide] | 0.69 |
| CC(C)n1c(=O)c(-c2ccc(NS(=O)(=O)CC3CC(F)(F)C3)c(F)c2)cc2cnc(N[C@H]3CC[C@H](N(C)C)CC3)nc21 [Compound 151, 1-(3,3-Difluorocyclobutyl)-N-(4-(2-(((1r,4r)-4-(dimethylamino)cyclohexyl)amino)-8-isopropyl-7-oxo-7,8-dihydropyrido[2,3-d]pyrimidin-6-yl)-2-fluorophenyl)methanesulfonamide] | 0.19 |
| CC(C)n1c(=O)c(-c2ccc(NS(=O)(=O)CC3CCCCC3)nc2)cc2cnc(N[C@H]3CC[C@H](N(C)C)CC3)nc21 [Compound 152, 1-Cyclohexyl-N-(5-(2-(((1r,4r)-4-(dimethylamino)cyclohexyl)amino)-8-isopropyl-7-oxo-7,8-dihydropyrido[2,3-d]pyrimidin-6-yl)pyridin-2-yl)methanesulfonamide] | 0.18 |
| CC(C)n1c(=O)c(-c2ccc(NS(=O)(=O)Cc3ccc(F)cc3)c(F)c2)cc2cnc(N[C@H]3CC[C@H](N(C)CCF)CC3)nc21 [Compound 155, N-(2-Fluoro-4-(2-(((1r,4r)-4-((2-fluoroethyl)(methyl)amino)cyclohexyl)amino)-8-isopropyl-7-oxo-7,8-dihydropyrido[2,3-d]pyrimidin-6-yl)phenyl)-1-(4-fluorophenyl)methanesulfonamide] | 0.23 |
| CC(C)n1c(=O)c(-c2ccc(NS(=O)(=O)CC3CC(F)(F)C3)c(F)c2)cc2cnc(N[C@H]3CC[C@H](N(C)CCF)CC3)nc21 [Compound 156, 1-(3,3-Difluorocyclobutyl)-N-(2-fluoro-4-(2-(((1r,4r)-4-((2-fluoroethyl)(methyl)amino)cyclohexyl)amino)-8-isopropyl-7-oxo-7,8-dihydropyrido[2,3-d]pyrimidin-6-yl)phenyl)methanesulfonamide] | 0.18 |
| CC(C)n1c(=O)c(-c2ccc(NS(=O)(=O)CCC(F)(F)F)c(F)c2)cc2cnc(N[C@H]3CC[C@H](N(C)CCF)CC3)nc21 [Compound 157, 3,3,3-trifluoro-N-(2-Fluoro-4-(2-(((1r,4r)-4-((2-fluoroethyl)(methyl)amino)cyclohexyl)amino)-8-isopropyl-7-oxo-7,8-dihydropyrido[2,3-d]pyrimidin-6-yl)phenyl)propane-1-sulfonamide] | 0.14 |
| CC(C)n1c(=O)c(-c2cc(F)c(NS(=O)(=O)Cc3ccn(CC(F)(F)F)n3)c(F)c2F)cc2cnc(N[C@@H]3CNC[C@@H](F)C3)nc21 [Compound 158, N-(2,3,6-Trifluoro-4-(2-(((3S,5S)-5-fluoropiperidin-3-yl)amino)-8-isopropyl-7-oxo-7,8-dihydropyrido[2,3-d]pyrimidin-6-yl)phenyl)-1-(1-(2,2,2-trifluoroethyl)-1H-pyrazol-3-yl)methanesulfonamide] | 0.57 |
| CCCS(=O)(=O)Nc1ccc(-c2nc3cnc(N[C@H]4CC[C@H](N(C)C)CC4)nc3n(C(C)C)c2=O)c(F)c1 [Compound 161, N-(4-(2-(((1r,4r)-4-(Dimethylamino)cyclohexyl)amino)-8-isopropyl-7-oxo-7,8-dihydropteridin-6-yl)-3-fluorophenyl)propane-1-sulfonamide] | 0.18 |
